Reference: patent publication US7196088B2, “Substituted tetrahydroisoquinolines and uses thereof” (Roche Palo Alto LLC, priority 2003, dated 2007)
Where a name gives a salt, the structure may show the parent alone.

Experiments:
[1] = target: recombinant human 5-HT6 receptor (Homo sapiens, UniProt P50406); assay: Radioligand binding studies: competition for [3H]LSD binding in membranes of HEK293 cells expressing the receptor
Chain of recombinant human 5-HT6 receptor (P50406 whole entry): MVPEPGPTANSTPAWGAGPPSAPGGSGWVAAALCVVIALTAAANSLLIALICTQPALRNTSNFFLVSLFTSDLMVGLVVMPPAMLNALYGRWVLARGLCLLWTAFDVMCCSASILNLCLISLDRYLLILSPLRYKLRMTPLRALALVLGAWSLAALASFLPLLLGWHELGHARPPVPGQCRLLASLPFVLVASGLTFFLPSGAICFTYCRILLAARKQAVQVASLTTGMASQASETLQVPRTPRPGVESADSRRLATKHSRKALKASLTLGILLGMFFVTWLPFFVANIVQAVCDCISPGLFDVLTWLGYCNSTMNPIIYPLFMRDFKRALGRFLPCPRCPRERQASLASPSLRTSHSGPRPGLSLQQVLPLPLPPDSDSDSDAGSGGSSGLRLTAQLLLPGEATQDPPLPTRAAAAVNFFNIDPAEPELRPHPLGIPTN

melting point [°C]	SMILES	Ki [1] [nM]
–	O=S(=O)(c1cccc(Cl)c1Cl)N1CCc2c(cccc2N2CCNCC2)C1 [Compound 16, 2-(2,3-Dichloro-benzenesulfonyl)-5-pipe-razin-1-yl-1,2,3,4-tetra-hydroisoquinoline]	0.0427
214 to 216	O=S(=O)(c1ccccc1)N1CCc2c(cccc2N2CCNCC2)C1 (as salt: trifluoroacetic acid salt)	–
